In ChEMBL document CHEMBL6134902, “Novel tacrine-based multi-target directed Ligands: Enhancing cholinesterase inhibition, NMDA receptor antagonism, and CNS bioavailability for Alzheimer's disease treatment” (Eur J Med Chem, 2025):

Experiments:
[1] = Lipophilicity, LogD of compound at pH 2.6 by chromatography; type: physicochemical; settings: buffer
[2] = Lipophilicity, LogD of compound at pH 7.4 by chromatography; type: physicochemical; settings: buffer
in vitro [3] = settings: human, liver microsomes
[4] = Lipophilicity, LogD of compound at pH 10.5 by chromatography; type: physicochemical; settings: buffer
in vitro [5] = settings: human, liver microsomes; remark: listed apart in the source
[6] = human, microsomes, 0.75 h, 3 µM
[7] = Tmax in plasma of male Balb/c mouse at 15 mg/kg, ip measured up to 120 mins; type: ADME, organism-based
[8] = AUC (infinity) in plasma of male Balb/c mouse at 15 mg/kg, ip measured up to 120 mins; type: ADME, organism-based
[9] = Drug uptake in brain of male BALB/c mouse at 15 mg/kg, ip measured after 48 hrs; type: ADME, organism-based; settings: in vivo
[10] = AUC (0 to 120 mins) in brain of male Balb/c mouse at 15 mg/kg, ip measured up to 120 mins; type: ADME, organism-based
[11] = Drug uptake in plasma of male BALB/c mouse at 15 mg/kg, ip measured after 48 hrs; type: ADME, organism-based; settings: in vivo
[12] = AUC (0 to 120 mins) in plasma of male Balb/c mouse at 15 mg/kg, ip measured up to 120 mins; type: ADME, organism-based
in vivo = settings: male, Balb/c, mouse, brain/plasma, ip, 15 mg/kg
[13] = Toxicity in male BALB/c mouse administered intraperitoneally measured for 48 hrs; settings: in vivo, route ip
[14] = Cmax in plasma of male Balb/c mouse at 15 mg/kg, ip measured up to 120 mins; type: ADME, organism-based
[15] = Cmax in brain of male Balb/c mouse at 15 mg/kg, ip measured up to 120 mins; type: ADME, organism-based
[16] = Tmax in brain of male Balb/c mouse at 15 mg/kg, ip measured up to 120 mins; type: ADME, organism-based
[17] = AUC (infinity) in brain of male Balb/c mouse at 15 mg/kg, ip measured up to 120 mins; type: ADME, organism-based

Compound	chromatographic logD [1]	chromatographic logD [2]	CHI	half-life at 0.75 h, 3 µM (in vitro [3])	chromatographic logD [4]	microsomal CLint at 0.75 h, 3 µM (in vitro [5])	Drug metabolism [6]	further results
Nc1c2c(nc3ccc(-c4cncnc4)cc13)CCCC2	0.99	2.73	14.7	93.7 min	2.59	14.8 µL/min/mg	200.7 10^6No_unit	
CC(C)COc1cccc(-c2ccc3nc4c(c(N)c3c2)CCCC4)c1	2.87	5.58	38.8		5.79			
COc1ncc(-c2ccc3nc4c(c(N)c3c2)CCCC4)c(OC)n1	0.65	1.2	12.2		1.4			
Nc1c2c(nc3ccc(Oc4ccccc4)cc13)CCCC2	1.83	3.82	27.6	330 min	4.49	4.2 µL/min/mg	473.1 10^6No_unit	
Cc1csc(-c2ccc3nc4c(c(N)c3c2)CCCC4)c1	2.12	4.41	33	6.2 min	4.96	224 µL/min/mg	207 10^6No_unit	Tmax [7]: 15 min; AUC(0-inf) [8]: 1.08 µM·h; Drug uptake [9]: Active; AUC(0-t) at 2 h [10]: 1.83 µM·h; Drug uptake [11]: Active; AUC(0-t) at 2 h [12]: 0.775 µM·h; Kp at 2 h (in vivo): 2.36; NOAEL at 48 h [13]: 15 mg/kg; Cmax [14]: 945 nM; Cmax [15]: 1470 nM; Tmax [16]: 26.2 min; AUC(0-inf) [17]: 1.96 µM·h
COc1ccc2nc3c(c(N)c2c1)CCCC3				32.8 min		42.2 µL/min/mg	13.2 10^6No_unit	
COc1ncc(-c2ccc3nc4c(c(N)c3c2)CCCC4)cn1	1.26	2.94	19.1		3.2			

The next lines start with results.

chromatographic logD [1]	chromatographic logD [2]	CHI	half-life at 0.75 h, 3 µM (in vitro [3])	chromatographic logD [4]	microsomal CLint at 0.75 h, 3 µM (in vitro [5])	Drug metabolism [6]	Compound	further results
1.77	3.85	29.6		4.54			Nc1c2c(nc3ccc(-c4cccs4)cc13)CCCC2	
1.44	3.24	23		3.81			Nc1c2c(nc3ccc(-c4ccc(F)nc4)cc13)CCCC2	
1.6	3.65	26		4.15			Nc1c2c(nc3ccc(-c4ccc(Cl)nc4)cc13)CCCC2	
1.78	3.8	29.9		4.48			Nc1c2c(nc3ccc(-c4ccsc4)cc13)CCCC2	
0.47	3.52	20.2	30 min	3.05	46.2 µL/min/mg	172.8 10^6No_unit	Nc1c2c(nc3ccc(-c4ccncc4)cc13)CCCC2	
2.28	4.86	37.9		5.42			Nc1c2c(nc3ccc(-c4ccc(Cl)s4)cc13)CCCC2	
1.63	3.69	25.3		3.99			COc1cc(-c2ccc3nc4c(c(N)c3c2)CCCC4)ccn1	
1.4	4.5	31.6		4.86			CN(C)c1cccc(-c2ccc3nc4c(c(N)c3c2)CCCC4)c1	
1.59	3.43	26.2		4.08			Nc1c2c(nc3ccc(-c4ccoc4)cc13)CCCC2	
1.94	4.06	29.5	5.8 min	4.58	239 µL/min/mg	215.5 10^6No_unit	Cc1ccc(-c2ccc3nc4c(c(N)c3c2)CCCC4)o1	
